The values below come from patent publication US20060040957A1, “BICYCLIC PYRIMIDINE MATRIX METALLOPROTEINASE INHIBITORS” (priority 2001, published 2006).

Data set [1] concerns the target T1, MMP-1FL (full length interstitial collagenase) (Homo sapiens, UniProt P03956).
T1 sequence (P03956 100-469): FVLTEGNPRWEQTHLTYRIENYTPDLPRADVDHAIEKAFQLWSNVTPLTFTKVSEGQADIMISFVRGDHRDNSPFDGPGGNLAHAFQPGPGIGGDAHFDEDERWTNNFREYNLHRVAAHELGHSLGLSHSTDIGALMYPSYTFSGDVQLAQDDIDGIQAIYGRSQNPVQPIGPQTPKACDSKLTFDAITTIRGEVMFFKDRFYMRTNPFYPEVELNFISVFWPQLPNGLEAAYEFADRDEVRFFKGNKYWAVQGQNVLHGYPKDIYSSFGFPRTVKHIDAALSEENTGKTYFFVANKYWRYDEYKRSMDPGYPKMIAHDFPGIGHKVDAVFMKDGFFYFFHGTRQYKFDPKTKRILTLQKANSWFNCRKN
The data set is described as follows: Thiopeptolide substrate hydrolysis assay, MMP-1FL. It is filed as biochemical. The conditions noted are these: HEPES pH 7.0, 22° C., read-out: IC50 (μM) Versus Certain MMPs: MMP-01 FL. The text has this: (§1) The invention compounds of Formula I have been evaluated in standard assays for their ability to inhibit the catalytic activity of various MMP enzymes.
(§2) Thiopeptolide substrates show virtually no decomposition or hydrolysis at or below neutral pH in the absence of a matrix metalloproteinase enzyme.
(§3) Several representative compounds have been evaluated for their ability to inhibit various matrix metalloproteinase enzymes.

For data set [2], the target named is MMP-14CD (catalytic domain of MMP-14) (Homo sapiens, UniProt P50281). The data set is described as follows: Thiopeptolide substrate hydrolysis assay, MMP-14CD. It is filed as biochemical. The following applies: HEPES pH 7.0, 22° C., read-out: IC50 (μM) Versus Certain MMPs: MMP-14 CD.
From the text: as §1, §2, §3

Data set [3] concerns the target T2, MMP-2FL (full length Gelatinase A) (Homo sapiens, UniProt P08253).
T2 sequence (P08253 110-660): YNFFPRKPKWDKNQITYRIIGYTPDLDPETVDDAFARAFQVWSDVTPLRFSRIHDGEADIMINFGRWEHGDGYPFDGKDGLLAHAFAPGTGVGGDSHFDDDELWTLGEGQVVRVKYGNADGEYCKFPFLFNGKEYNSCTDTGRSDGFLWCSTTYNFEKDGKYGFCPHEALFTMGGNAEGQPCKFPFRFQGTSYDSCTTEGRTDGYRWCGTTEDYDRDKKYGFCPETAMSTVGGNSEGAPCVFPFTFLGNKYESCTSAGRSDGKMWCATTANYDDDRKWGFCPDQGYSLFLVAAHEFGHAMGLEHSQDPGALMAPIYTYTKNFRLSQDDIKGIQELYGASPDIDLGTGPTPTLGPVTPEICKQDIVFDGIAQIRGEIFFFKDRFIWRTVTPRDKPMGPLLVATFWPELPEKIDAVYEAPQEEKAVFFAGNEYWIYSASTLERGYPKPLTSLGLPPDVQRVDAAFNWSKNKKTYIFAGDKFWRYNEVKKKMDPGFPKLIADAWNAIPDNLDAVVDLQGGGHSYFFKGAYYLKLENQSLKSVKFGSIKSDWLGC
The data set is described as follows: Thiopeptolide substrate hydrolysis assay, MMP-2FL. In kind it is biochemical. The conditions noted are these: HEPES pH 7.0, 22° C., read-out: IC50 (μM) Versus Certain MMPs: MMP-02 FL.
From the text: as §1, §2, §3

The target in data set [4] is T3, MMP-7FL (full length matrilysin) (Homo sapiens, UniProt P09237).
T3 sequence (P09237 95-267): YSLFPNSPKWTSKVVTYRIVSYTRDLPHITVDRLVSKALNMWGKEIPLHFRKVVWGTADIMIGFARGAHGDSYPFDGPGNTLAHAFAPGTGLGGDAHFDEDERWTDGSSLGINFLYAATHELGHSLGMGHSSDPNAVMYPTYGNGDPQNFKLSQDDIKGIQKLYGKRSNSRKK
As to the kind of experiment: Thiopeptolide substrate hydrolysis assay, MMP-7FL. In kind it is biochemical. The following applies: HEPES pH 7.0, 22° C., read-out: IC50 (μM) Versus Certain MMPs: MMP-07 FL.
From the text: as §1, §2, §3

Data set [5] deals with MMP-9FL (full length Gelatinase B) (Homo sapiens, UniProt P14780). As to the kind of experiment: Thiopeptolide substrate hydrolysis assay, MMP-9FL. In kind it is biochemical. The conditions noted are these: HEPES pH 7.0, 22° C., read-out: IC50 (μM) Versus Certain MMPs: MMP-09 FL.
Sequence of MMP-9FL (full length Gelatinase B) (P14780 94-707, species assumed): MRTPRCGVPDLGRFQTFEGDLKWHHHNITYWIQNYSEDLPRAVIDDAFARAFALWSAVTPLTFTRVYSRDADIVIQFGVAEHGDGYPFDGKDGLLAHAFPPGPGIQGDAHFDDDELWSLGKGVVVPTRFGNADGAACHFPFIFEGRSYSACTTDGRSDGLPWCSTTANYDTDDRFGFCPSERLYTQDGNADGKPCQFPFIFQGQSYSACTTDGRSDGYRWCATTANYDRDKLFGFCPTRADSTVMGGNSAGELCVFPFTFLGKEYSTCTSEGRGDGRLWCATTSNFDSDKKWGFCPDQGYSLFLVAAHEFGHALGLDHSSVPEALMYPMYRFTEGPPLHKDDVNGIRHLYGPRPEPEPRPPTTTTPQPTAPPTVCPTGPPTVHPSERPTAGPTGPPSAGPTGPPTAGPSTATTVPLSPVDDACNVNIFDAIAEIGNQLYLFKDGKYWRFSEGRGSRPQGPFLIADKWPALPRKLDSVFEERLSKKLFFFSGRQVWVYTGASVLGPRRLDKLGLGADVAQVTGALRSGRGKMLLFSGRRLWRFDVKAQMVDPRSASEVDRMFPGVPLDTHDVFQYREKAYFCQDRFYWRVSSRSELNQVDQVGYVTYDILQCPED
From the text: as §1, §2, §3

Data set [6] deals with MMP-3CD (catalytic domain of stromelysin-1) (Homo sapiens, UniProt P08254). As to the kind of experiment: Thiopeptolide substrate hydrolysis assay, MMP-3CD. The following applies: MES buffer pH 6.0, read-out: IC50 (μM) Versus Certain MMPs: MMP-03 CD. It is filed as biochemical. The procedure:
as §1, §2, §3
It should be appreciated that the assay buffer used with MMP-3CD was 50 mM N-morpholinoethane sulfonate (−MES=) at pH 6.0 rather than the HEPES buffer at pH 7.0 described above.

The target in data set [7] is MMP-13CD (catalytic domain of collagenase 3) (Homo sapiens, UniProt P45452). As to the kind of experiment: Thiopeptolide substrate hydrolysis assay, MMP-13CD. In kind it is biochemical. The following applies: thiopeptolide substrate, HEPES pH 7.0, 22° C.
From the text: as §2

Where [8] appears, read: read-out: IC50 (μM) Versus Certain MMPs: MMP-13 CD.
[9] abbreviates: IC50 (μM) Versus Certain MMPs: MMP-13 CD.

SMILES strings stand for the structures. Counter-ions that a name gives are not always drawn. Like-named read-outs stand apart in the source and are kept apart here.

Sequence of MMP-3CD (catalytic domain of stromelysin-1) (P08254 100-272 limits assumed): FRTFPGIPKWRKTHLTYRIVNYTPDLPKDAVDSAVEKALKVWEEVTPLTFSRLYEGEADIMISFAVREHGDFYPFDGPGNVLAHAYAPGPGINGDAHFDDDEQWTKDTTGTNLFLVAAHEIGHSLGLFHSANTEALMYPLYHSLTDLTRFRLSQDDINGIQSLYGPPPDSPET

With `O=C(OCc1ccncc1)c1cn2c(=O)n(Cc3ccccc3)c(=O)cc2s1` [Example 3, 6-Benzyl-5,7-dioxo-6,7-dihydro-5H-thiazolo[3,2-c]pyrimidine-2-carboxylic acid pyridin-4-ylmethyl ester hydrochloride], the IC50 – broadly, the concentration at which inhibition is half-maximal – in data set [1] was more than 100 µM; in data set [2] it was more than 100 µM; in data set [3], more than 100 µM; in data set [4], more than 100 µM; in data set [5] it was more than 100 µM; in data set [6] it was 11 µM.
For `O=C(OCc1ccccc1)c1cn2c(=O)n(Cc3ccccc3)c(=O)cc2s1` [Example 1, 6-Benzyl-5,7-dioxo-6,7-dihydro-5H-thiazolo[3,2-c]pyrimidine-2-carboxylic acid benzyl ester], the half-maximal inhibitory concentration (IC50) was more than 100 µM in data set [1], more than 30 µM in data set [2], 96 µM in data set [4] and 23 µM in data set [6].
On to `COC(=O)c1nc(Cn2c(=O)c(C)c3sc(C(=O)NCc4ccc(F)cc4)cn3c2=O)ncc1OC` [Example 78, 2-[2-(4-Fluoro-benzylcarbamoyl)-8-methyl-5,7-dioxo-7H-thiazolo[3,2-c]pyrimidin-6-ylmethyl]-5-methoxy-pyrimidine-4-carboxylic acid methyl ester], for which the IC50 in data set [1], in data set [2], in data set [3], in data set [4], in data set [5] and in data set [6] was more than 30 µM in each case.
As to `O=C(OCc1ccncc1)C1Cn2c(cc(=O)n(Cc3ccccc3)c2=O)S1` (stereo not shown) [Example 21, 6-Benzyl-5,7-dioxo-2,3,6,7-tetrahydro-5H-thiazolo[3,2-c]pyrimidine-2-carboxylic acid pyridin-4-ylmethyl ester hydrochloride], the IC50 in data set [1], in data set [2], in data set [3], in data set [4], in data set [5] and in data set [6] was more than 100 µM each time.
As to `O=C(Nc1ccc(-c2ccccc2)cc1)c1cn2c(=O)n(Cc3ccccc3)c(=O)cc2s1` [Example 6, 6-Benzyl-5,7-dioxo-6,7-dihydro-5H-thiazolo[3,2-c]pyrimidine-2-carboxylic acid biphenyl-4-ylamide], the IC50 in data set [1] is more than 30 µM; in data set [2] it was 7.3 µM; in data set [3], more than 30 µM; in data set [4], 9.2 µM; in data set [5], more than 30 µM; in data set [6], 3.5 µM. The half-maximal inhibitory concentration (IC50) in data set [7] (setting [8]) was 23 µM.
As to `O=c1cc2sc(C(O)CCc3ccccc3)cn2c(=O)n1Cc1ccccc1` (stereo not shown) [Example 5, 6-Benzyl-2-(1-hydroxy-3-phenyl-propyl)-thiazolo[3,2-c]pyrimidine-5,7-dione], the IC50 in data set [1], in data set [2], in data set [3], in data set [4], in data set [5] and in data set [6] was more than 100 µM throughout. Also, the IC50 in data set [7] (setting [8]) was 14.3 µM.
For `O=C(CCc1ccccc1)c1cn2c(=O)n(Cc3ccccc3)c(=O)cc2s1` [Example 8, 6-Benzyl-2-(3-phenyl-propionyl)-thiazolo[3,2-c]pyrimidine-5,7-dione], the IC50 in data set [1] was more than 100 µM; in data set [2], 8.8 µM; in data set [3], more than 100 µM; in data set [4] it was more than 30 µM; in data set [5], more than 100 µM; in data set [6], 3.2 µM. The compound further registered an IC50 in data set [7] (setting [9]) of 6.6 µM.
As for `Cc1c(C(=O)OCc2ccccc2)sc2cc(=O)n(Cc3ccccc3)c(=O)n12` [Example 19, 6-Benzyl-3-methyl-5,7-dioxo-6,7-dihydro-5H-thiazolo[3,2-c]pyrimidine-2-carboxylic acid benzyl ester], the IC50 is more than 100 µM in data set [1]; more than 30 µM in data set [2]; more than 100 µM in data set [3]; 8.8 µM in data set [4]; more than 30 µM in data set [5]; more than 100 µM in data set [6]. This compound came in with an IC50 in data set [7] (setting [9]) of 21 µM.
As for `COc1cc(CNC(=O)c2cn3c(=O)n(Cc4ccccc4)c(=O)c(C)c3s2)ccn1` [Example 37], the IC50 is more than 30 µM in data set [1]; more than 30 µM in data set [2]; more than 30 µM in data set [3]; more than 30 µM in data set [4]; more than 30 µM in data set [5]; 10 µM in data set [6]. This compound showed an IC50 in data set [7] (setting [9]) of 0.0175 µM.
Regarding `O=C(NCc1ccccc1)c1cn2c(=O)n(Cc3ccccc3)c(=O)cc2s1` [Example 4, 6-Benzyl-5,7-dioxo-6,7-dihydro-5H-thiazolo[3,2-c]pyrimidine-2-carboxylic acid benzylamide], the IC50 was 81 µM in data set [1]; 47.5 µM in data set [2]; more than 100 µM in data set [3]; 65 µM in data set [4]; 83.5 µM in data set [5]; 27 µM in data set [6]. This compound yielded an IC50 in data set [7] (setting [9]) of 0.572 µM.
As for `COC(=O)c1ccc(Cn2c(=O)c(C)c3sc(C(=O)NCc4ccc(F)cc4)cn3c2=O)cc1OC.Cl` [Example 69, 4-[2-(4-Fluoro-benzylcarbamoyl)-8-methyl-5,7-dioxo-7H-thiazolo[3,2-c]pyrimidin-6-ylmethyl]-2-methoxy-benzoic acid methyl ester], the melting point (in general, the temperature of the solid-liquid transition) was in the range of 191 to 193 °C. Besides, the IC50 in data set [2] was more than 30 µM. Further, the IC50 in data set [3] was more than 30 µM. In data set [4], the 50% inhibitory concentration (IC50) was more than 30 µM. Also, the IC50 in data set [5] was more than 30 µM. In addition, the IC50 in data set [6] amounted to 10 µM.
